One assay has as its system VGSC β3 subunit. The assay is described as follows: Western blotting of VGSC β3 subunit in HepG2 cells after AGAP. In kind it is cell-based, human. Conditions: HepG2, 40 μM, 48 h incubation, control proteins. The procedure:
(§1) Analgesic antitumoral peptide (AGAP) at […] different concentrations (0, 5, 10, 15, 20, 25, 30, 35 and 40 μM) were incubated with hepatoma cell lines HepG2 (96 well plates, 10^4 cells/well, 24 h later, AGAP was administered at different concentrations as described above, at least 3 wells were repeated for each concentration) for 48 h, the amount of the VGSC β3 subunit expressed was then detected by Western blotting using the antibody in I.10. The cell proliferation level was measured using the MTT method.

In assay [1] the test system is hepatoma cell lines HepG2. The assay can be described thus: MTT assay of HepG2 cell proliferation after AGAP. In kind it is cell-based. Conditions: HepG2, 40 μM, 48 h incubation, control proteins. On the procedure:
The cell proliferation was measured by MTT assay:took the cells in good growth condition and in logarithmic growth phase, digested with conventional trypsin, and pipetted into a single cell suspension, after counting the blood cell with blood counting chamber, the concentration was adjusted to 10^5 cells/ml (HepG2 cells), then were inoculated into 96-well plates at 100 μl per well, while set the blank hole (only added 100 μl of culture medium, without cells); cultured in 5% CO2 incubator at 37° C. for 24 h, each well was added 0.5 mg/ml MTT, 100 μl, then continued to culture for 4 h, the supernatant was discarded and 150 μl of DMSO was added to each well. The mixture was incubated at low speed for 10 min on a micro shaker, and the absorbance of each well was measured at 490 nm using a microplate reader after the crystals were fully dissolved.
as §1

Turning to bovine serum albumin, the “effect on the expression of the VGSC β3 subunit” value in the assay on VGSC β3 subunit is on record as “no effect”. In addition, in assay [1], the “effect on cell proliferation” value is given as “nor did it affect cell proliferation”.

In the case of cytochrome C, in the assay on VGSC β3 subunit, the “effect on the expression of the VGSC β3 subunit” value was “no effect”. The “effect on cell proliferation” value in assay [1] was “nor did it affect cell proliferation”.

The record behind these values is patent US11155820B2, “Target of VGSC β3 protein for prevention, treatment and diagnostic detection of cancers” (SHENYANG PHARMACEUTICAL UNIVERSITY, priority 2014, dated 2021).
